Source: patent publication EP0338042B1, “COMPOSITION AND METHOD FOR TREATING HEPATITIS VIRUS INFECTIONS USING 1-(2'-DEOXY-2'-FLUORO-BETA-D-ARABINOFURANOSYL)-5-ETHYLURACIL” (priority 1987, dated 1989)
In brackets after ≈: the same amount, converted by molar mass. Where two headings read alike, the source gives them in different places. Each block holds one molecule with its values, some of them ahead of it.

Key:
[1] = tested on: woodchuck hepatitis virus (WHV); experiment: Inhibition of WHV replication in chronically infected woodchucks (DNA polymerase activity); format: in vivo, woodchucks (Marmota monax); conditions: for WHV DNA polymerase levels / WHV DNA polymerase levels after cessation of drug administration: other antivirals, dose not given; for virus replication levels: dosages similar to FMAU (2-4 mg/kg per day); for virus replication levels after cessation of treatment: dosages similar to FMAU, soon after cessation
Protocol: All woodchucks bearing chronic active hepatitis virus (Hantz, supra) were administered FMAU twice daily by interperitoneal injections of FMAU in the following dosages:
Studies were then undertaken to evaluate FMAU and FEAU in this animal model using woodchucks naturally chronically-infected with woodchuck hepatitis virus (24). It was assumed that these nucleosides would be anabolized to their nucleoside triphosphates within the animal. WHV replication was measured periodically by the endogenous DNA polymerase activity and by the detection of WHV DNA by the dot-blot hybridization assay. Three different dosages of FMAU and FEAU were investigated. FMAU at 2 mg/kg/day x 5, (given intraperitoneally TABLE VIII
In accordance with the procedures of Example 2, the FEAU inhibition of WHV replication was further studied at different doses administered orally to woodchucks through stomach tubes. Two groups of woodchucks with different initial WHV replication values were examined.
Seven woodchucks with high WHV replication were tested. High replication was defined as over 1000 counts per minute of DNA polymerase activity, and the mean replication was 1600.
Seven woodchucks with low WHV replication were tested. Low replication was defined as lower than 1000 counts per minute of DNA polymerase activity, and the mean replication was 600-800.

HBV DNA polymerase [2] = target: T1, HBV DNA polymerase (Hepatitis B virus genotype D subtype ayw, UniProt P03156); experiment: DNA polymerase assay with purified virus particles; format: biochemical; conditions: for IC50: concentration of inhibitor giving a 50% inhibition of DNA polymerase activity, read-out: ID₅₀ HBV DNA POLYMERASE; for nature of inhibition (Lineweaver-Burk plots): ACVTP, FIACTP, BVdUTP versus dGTP, dCTP, dTTP respectively, similar for WHV DNA polymerase; for relative efficiency as inhibitor of HBV DNA polymerase: excess of nucleotides, similar results with WHV DNA polymerase; for ID₅₀ compared with FIACTP (times more): stated for HBV and WHV DNA polymerases
T1 construct: from tissue; host or cells: serum of an immunosuppressed, HBsAg-positive patient; virions purified on sucrose and CsCl gradients
Description: (§1) HBV particles containing DNA polymerase activity were purified from the serum of an immunosuppressed patient, positive for HBsAG. WHV was obtained from a serum pool of five woodchucks (Marmota monax), chronic carriers of the virus. The woodchucks initially imported from Pennsylvania belonged to a colony followed for over one year by serological tests as reported in Hantz et al., J. Virol. Metho. 7: 45-55 (1983). Virus was purified by centrifugation on sucrose and isopycnic CsCl gradients.
(§2) DNA polymerase was assayed as described by Kaplan et al., J. Virol. 12: 995 (1973) with minor modification. The assay was performed in a 50 µl reaction mixture containing 50 mM Tris-HCl pH 7.5, 40 mM MgCl₂, 60 mM NH₄Cl, 100 µM each dATP, dCTP and dGTP, 0.2-0.7 µM [³H] dTTP (30 Ci/mmol), 10 mM 2-mercaptoethanol, 0.5% Nonidet P-40 and enzyme. The reaction was started by addition of the virus particles with 2-mercaptoethanol and Nonidet P 40. Incubation was at 37°C for 1 hour. Acid insoluble radioactive material was collected on a glass fiber filter (GF/C Whatman). Filters were washed 5 times with cold 5% trichloracetic acid containing 10 mM sodium pyrophosphate, then with 95% ethanol. Radioactivity of the dried filter was measured in a liquid scintillation counter.
(§3) The relative sensitivities of both enzymes to ACVTP, FIACTP and BVdUTP were compared using an excess of nucleotides. For each inhibitor, the concentration of the corresponding radioactive triphosphate was maintained at 2 to 3 times the Km value while the remaining nucleotides were in great excess (50 µM).

WHV DNA polymerase = target: T2, WHV DNA polymerase (Woodchuck hepatitis B virus, UniProt P03160); experiment: DNA polymerase assay with purified virus particles; format: biochemical; conditions: read-out: ID₅₀ WHV DNA POLYMERASE
T2 construct: The reaction was started by addition of the virus particles with 2-mercaptoethanol and Nonidet P 40; from tissue; host or cells: serum pool of five chronically infected woodchucks (Marmota monax); virions purified on sucrose and CsCl gradients
Description: as §1, §2, §3

HBV DNA polymerase [3] = target: T1, HBV DNA polymerase; experiment: Time course of DNA synthesis with triphosphate analogs in place of the natural substrate; format: biochemical; conditions: for DNA synthesis with analog substituted for the natural substrate: ara-TTP for dTTP, ara-CTP for dCTP, ACVTP for dGTP; for HBV DNA synthesis after addition of the normal substrate: reaction started with analog instead of normal substrate (ACVTP 5 µM), normal substrate (100 µM dGTP) added after 120 minutes
Protocol: as §2
To determine the effect of the three analogs on viral DNA synthesis, a time course experiment was performed with HBV DNA polymerase. [³H] dATP was used as the labeled substrate. With all four nucleoside triphosphate substrates, the reaction was linear up to 60 mn. […] The substitution of dTTP by BVdUTP permitted the viral DNA synthesis up to 46% of the control after 3 hours of reaction. This value increased to 67% of the optimal activity after 4 h of reaction.
BVdUTP was the most efficient alternate substrate for both enzymes. The DNA synthesized with BVdUTP as alternate substrate was analyzed by agarose gel electrophoresis. Only incomplete filling of the single-stranded region of HBV or WHV DNA was obtained with BVdUTP.
The effect of ACVTP on HBV DNA synthesis was also studied in a time course experiment. [³H] dTTP was the labeled substrate. The reaction was initiated without dGTP or with 5 µm ACVTP instead of dGTP. Under these conditions, no incorporation of [³H] dTMP could be measured. After 120 minutes of reaction, 100 µM of dGTP was added. In the assay without dGTP only, the addition of dGTP increased DNA synthesis as expected. […] By comparison, when the reaction was started with the same proportion of ACVTP (5 µM) and dGTP (100 µM) a significant DNA synthesis was observed. Similar experiments were carried out with ara-ATP and ara-CTP.

physchem = experiment: physchem
Description: Ongoing testing of woodchucks bearing hepatitis virus is being conducted with the following additional pyrimidine nucleoside compounds: FIAC (2′-fluoro-2′-deoxy-arabinosyl-5-iodoocytosine) and FIAU (2′-fluoro-2′-deoxy-arabinosyl-5-iodouracil). As with FMAU, water is the preferred carrier.
If necessary, the solubility of the compounds FMAU, FIAC, and FIAU may be increased by adding acid or base to the aqueous solvent.

HSV-2 (STRAIN G) = conditions: cited from earlier work; for MDD: twice a day for 4 days from 5 hr after inoculation, calculated on day 21; for % SURVIVORS: twice a day for 4 days; for %WT GAIN ON DAY 7 / %WT GAIN ON DAY 14 / %WT GAIN ON DAY 21 / %WT GAIN ON DAY 30: compared to day 1
[4] = concentration of inhibitor giving a 50% inhibition of DNA polymerase activity

T2 sequence (P03160 whole entry): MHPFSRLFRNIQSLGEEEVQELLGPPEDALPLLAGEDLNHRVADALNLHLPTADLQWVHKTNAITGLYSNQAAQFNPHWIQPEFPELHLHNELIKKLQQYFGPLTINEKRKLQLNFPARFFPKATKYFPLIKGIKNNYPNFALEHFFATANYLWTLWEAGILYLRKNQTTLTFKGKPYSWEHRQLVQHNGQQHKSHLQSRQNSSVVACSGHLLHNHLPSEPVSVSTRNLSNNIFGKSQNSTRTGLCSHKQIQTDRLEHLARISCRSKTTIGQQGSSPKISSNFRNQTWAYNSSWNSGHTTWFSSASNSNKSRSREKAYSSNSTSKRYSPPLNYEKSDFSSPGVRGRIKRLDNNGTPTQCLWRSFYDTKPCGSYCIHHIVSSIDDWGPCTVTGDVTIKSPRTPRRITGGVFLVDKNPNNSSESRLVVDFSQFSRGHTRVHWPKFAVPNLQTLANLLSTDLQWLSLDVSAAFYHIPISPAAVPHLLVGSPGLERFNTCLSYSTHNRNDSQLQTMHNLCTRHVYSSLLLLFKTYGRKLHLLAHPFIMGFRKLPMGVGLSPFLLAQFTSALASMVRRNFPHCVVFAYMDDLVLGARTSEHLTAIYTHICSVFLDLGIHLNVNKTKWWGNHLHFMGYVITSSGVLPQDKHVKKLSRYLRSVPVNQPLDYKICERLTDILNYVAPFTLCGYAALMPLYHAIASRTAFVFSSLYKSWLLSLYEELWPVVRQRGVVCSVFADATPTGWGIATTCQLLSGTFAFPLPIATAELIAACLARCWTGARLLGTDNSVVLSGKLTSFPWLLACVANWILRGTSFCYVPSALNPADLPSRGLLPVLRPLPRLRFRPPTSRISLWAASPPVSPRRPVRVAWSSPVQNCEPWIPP
T1 sequence (P03156 whole entry): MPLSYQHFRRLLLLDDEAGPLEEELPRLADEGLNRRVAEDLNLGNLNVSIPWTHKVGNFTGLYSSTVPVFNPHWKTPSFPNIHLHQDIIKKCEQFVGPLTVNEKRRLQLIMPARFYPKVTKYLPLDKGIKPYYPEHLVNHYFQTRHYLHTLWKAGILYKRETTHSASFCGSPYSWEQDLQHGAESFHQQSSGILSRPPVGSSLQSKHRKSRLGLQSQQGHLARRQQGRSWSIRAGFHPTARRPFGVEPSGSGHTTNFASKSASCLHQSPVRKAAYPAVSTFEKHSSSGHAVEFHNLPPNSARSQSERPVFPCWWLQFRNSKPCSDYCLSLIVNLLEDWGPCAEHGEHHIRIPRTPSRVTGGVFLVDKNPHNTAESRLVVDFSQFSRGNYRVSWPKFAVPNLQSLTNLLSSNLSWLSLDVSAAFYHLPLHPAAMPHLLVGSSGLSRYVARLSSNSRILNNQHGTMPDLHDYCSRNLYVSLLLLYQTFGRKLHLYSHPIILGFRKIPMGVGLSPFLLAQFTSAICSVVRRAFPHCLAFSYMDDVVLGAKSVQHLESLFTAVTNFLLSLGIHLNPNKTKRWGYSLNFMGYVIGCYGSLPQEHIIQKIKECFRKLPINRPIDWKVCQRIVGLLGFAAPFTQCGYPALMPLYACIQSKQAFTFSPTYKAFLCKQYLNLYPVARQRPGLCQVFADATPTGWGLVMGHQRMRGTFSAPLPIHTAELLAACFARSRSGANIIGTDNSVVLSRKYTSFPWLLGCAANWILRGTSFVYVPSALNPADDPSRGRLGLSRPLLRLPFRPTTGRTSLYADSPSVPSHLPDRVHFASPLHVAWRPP

SMILES: Nc1ncc2ncn(COCCO)c2n1 [6-deoxy-acyclovir]
WHV DNA polymerase levels [1]: diminished
WHV DNA polymerase levels after cessation of drug administration [1]: rebounded to pretreatment levels

SMILES: Cc1cn([C@@H]2O[C@H](COP(=O)(O)OP(=O)(O)OP(=O)(O)O)[C@@H](O)[C@@H]2F)c(=O)[nH]c1=O [FMAU-TP]
IC50 (HBV DNA polymerase [2]): 25 nM
IC50 (WHV DNA polymerase): 50 nM

SMILES: Nc1nc2c(ncn2COC(CO)CO)c(=O)[nH]1 [DHPG]
WHV DNA polymerase levels [1]: diminished
WHV DNA polymerase levels after cessation of drug administration [1]: rebounded to pretreatment levels

SMILES: Nc1nc(=O)n([C@@H]2O[C@H](COP(=O)(O)OP(=O)(O)OP(=O)(O)O)[C@@H](O)[C@@H]2F)cc1I [FIACTP]
nature of inhibition (Lineweaver-Burk plots) (HBV DNA polymerase [2]): competitive
relative efficiency as inhibitor of HBV DNA polymerase (HBV DNA polymerase [2]): most efficient inhibitor
IC50 (WHV DNA polymerase; [4]): 100 nM

SMILES: Nc1ccn([C@@H]2O[C@H](COP(=O)(O)OP(=O)(O)OP(=O)(O)O)[C@@H](O)[C@@H]2O)c(=O)n1 [ara-CTP]
IC50 (HBV DNA polymerase [2]): 1100 nM
relative efficiency as inhibitor of HBV DNA polymerase (HBV DNA polymerase [2]): least efficient
IC50 (WHV DNA polymerase; [4]): 1200 nM
DNA synthesis with analog substituted for the natural substrate (HBV DNA polymerase [3]): no significant incorporation
HBV DNA synthesis after addition of the normal substrate (HBV DNA polymerase [3]): increased the HBV DNA synthesis

solubility (physchem; aqueous hydrochloric acid): ~250 mg/mL (≈ 674 mM)
SMILES: Nc1nc(=O)n([C@@H]2O[C@H](CO)[C@@H](O)[C@@H]2F)cc1I [FIAC, 1-(2'-deoxy-2'-fluoro-beta-D-arabinofuranosyl)-5-iodocytosine]
toxicity (previous results) ([1]; woodchucks, previous results): lethal toxicity

SMILES: Nc1nc2c(ncn2COCCO)c(=O)[nH]1 [acyclovir]
virus replication levels [1]: diminished
virus replication levels after cessation of treatment [1]: rebounded to pretreatment levels

SMILES: Nc1nc2c(ncn2COCCOP(=O)(O)OP(=O)(O)OP(=O)(O)O)c(=O)[nH]1 [ACVTP]
nature of inhibition (Lineweaver-Burk plots) (HBV DNA polymerase [2]): competitive
IC50 (HBV DNA polymerase [2]): 900 nM
ID₅₀ compared with FIACTP (times more) (HBV DNA polymerase [2]): 18 times
IC50 (WHV DNA polymerase; [4]): 700 nM
DNA synthesis with analog substituted for the natural substrate (HBV DNA polymerase [3]): did not increase the polymerization process
HBV DNA synthesis after addition of the normal substrate (HBV DNA polymerase [3]): no DNA synthesis was observed

SMILES: Cc1cn([C@@H]2O[C@H](COP(=O)(O)OP(=O)(O)OP(=O)(O)O)[C@@H](O)[C@@H]2O)c(=O)[nH]c1=O [ara-TTP]
IC50 (HBV DNA polymerase [2]): 300 nM
IC50 (WHV DNA polymerase; [4]): 400 nM
DNA synthesis with analog substituted for the natural substrate (HBV DNA polymerase [3]): no significant DNA synthesis

SMILES: Nc1ncnc2c1ncn2[C@@H]1O[C@H](COP(=O)(O)OP(=O)(O)OP(=O)(O)O)[C@@H](O)[C@@H]1O [ara-ATP]
HBV DNA synthesis after addition of the normal substrate (HBV DNA polymerase [3]): increased the HBV DNA synthesis

SMILES: CCc1cn([C@H]2C[C@H](O)[C@@H](CO)O2)c(=O)[nH]c1=O [EDU, 5-ethyl-2′-deoxyuridine, reference compound]
MDD (HSV-2 (STRAIN G); EDU 800 MG/KG/DAY): 7.6
% SURVIVORS (HSV-2 (STRAIN G); EDU 800 MG/KG/DAY): 13%
%WT GAIN ON DAY 7 (HSV-2 (STRAIN G); EDU 800 MG/KG/DAY): -10%
%WT GAIN ON DAY 14 (HSV-2 (STRAIN G); EDU 800 MG/KG/DAY): -6%
%WT GAIN ON DAY 21 (HSV-2 (STRAIN G); EDU 800 MG/KG/DAY): 2%
%WT GAIN ON DAY 30 (HSV-2 (STRAIN G); EDU 800 MG/KG/DAY): 6%
MDD (HSV-2 (STRAIN G); EDU 1000 MG/KG/DAY): 8.6
% SURVIVORS (HSV-2 (STRAIN G); EDU 1000 MG/KG/DAY): 33%
%WT GAIN ON DAY 7 (HSV-2 (STRAIN G); EDU 1000 MG/KG/DAY): 3%
%WT GAIN ON DAY 14 (HSV-2 (STRAIN G); EDU 1000 MG/KG/DAY): 13%
%WT GAIN ON DAY 21 (HSV-2 (STRAIN G); EDU 1000 MG/KG/DAY): 34%
%WT GAIN ON DAY 30 (HSV-2 (STRAIN G); EDU 1000 MG/KG/DAY): 43%

solubility (physchem): increased many fold
SMILES: O=c1[nH]c(=O)n([C@@H]2O[C@H](CO)[C@@H](O)[C@@H]2F)cc1I [FIAU, 2′-fluoro-2′-deoxy-arabinosyl-5-iodouracil]

SMILES: O=c1[nH]c(=O)n([C@H]2C[C@H](O)[C@@H](COP(=O)(O)OP(=O)(O)OP(=O)(O)O)O2)cc1/C=C/Br [BVdUTP]
nature of inhibition (Lineweaver-Burk plots) (HBV DNA polymerase [2]): competitive
IC50 (HBV DNA polymerase [2]): 250 nM
ID₅₀ compared with FIACTP (times more) (HBV DNA polymerase [2]): 5 times
IC50 (WHV DNA polymerase; [4]): 300 nM

SMILES: Nc1ncnc2c1ncn2[C@@H]1O[C@H](COP(=O)(O)O)[C@@H](O)[C@@H]1O [ara-AMP]
virus replication levels [1]: diminished
virus replication levels after cessation of treatment [1]: rebounded to pretreatment levels
WHV DNA polymerase levels [1]: diminished
WHV DNA polymerase levels after cessation of drug administration [1]: rebounded to pretreatment levels
